“And” between values parts separate entries of the source, which are not always exact repeats. Equal values may be shown once.
Experiments:
[1] = test system: PSMA-positive cells LNCap; assay: Uptake of labeled compounds by PSMA-positive cells LNCap; type: cell-based; conditions: 37° C., 0.5 h
Experimental: LNCap cells (Shangcheng Beina Chuanglian Biotechnology Co., Ltd., Industrial Park, Chengguan Town, Shangcheng County, Xinyang City, Henan Province) were revived and passaged for expansion. After the cells were expanded to a sufficient amount, cells were seeded in a 24-well plate at a density of 1×10^4 cells/well. Uptake tests were performed when cells grew to 80%-90% confluence.
The above labeled compounds ^177Lu-E1, ^177Lu-E2, ^177Lu-E3, ^177Lu-E5, ^177Lu-E9, ^177Lu-E14 and ^177Lu-PSMA-617 were diluted with serum-free medium into 10000, 1000, 100, 10, 1, 0.1 and 0 nM. 1 mL of the diluted solution was added to a 24-well plate, and incubated at 37° C. for 0.5 h. The supernatant was discarded and the cells were washed 3 times with PBS. 250 μL of 1M NaOH solution was added to each well. The cells were pipetted until they were completely dissolved, and transferred to a scintillation vial. 250 μL of NaOH solution was added to each well again to wash the bottom of the well and transferred to a scintillation vial. 2 mL of scintillation fluid was added to each scintillation vial and shaken well. A liquid scintillation counter was used to detect radioactive counts in each vial.

[2] = In vivo metabolism test of 177Lu-labeled complex in SD rats (plasma radioactive counts); conditions: for plasma radioactive counts: individual rat, 100 μL plasma; for plasma radioactive counts, MEAN: mean of rats
Experimental: Eighteen SD rats (Hangzhou Ziyuan Experimental Animal Technology Co., Ltd.), male, weighing 180-200 g, were randomly divided into 6 groups, 3 rats in each group. […] of the labeled precursor compound was injected into the tail vein of each mouse. 250 μL of orbital blood was collected into anticoagulant tubes at 5 min, 0.5 h, 1 h, 2 h, 4 h, 8 h and 24 h after administration. Blood was centrifuged at 3000 rpm for 10 min, and 100 μL of plasma was taken into scintillation vials. 2 mL of scintillation fluid was added to each scintillation vial and shaken well. A liquid scintillation counter was used to detect radioactive counts in each vial.

22rv1 xenograft tumor = assay: Pharmacodynamic study in 22rv1 mouse xenograft tumor model (effect example 11); type: in vivo, mice; conditions: over the two dose groups
[3] = test system: LNCaP PSMA-positive tumors; assay: SPECT imaging in mice carrying LNCaP PSMA-positive tumors; type: in vivo; conditions: 100 μCi tail vein
Experimental: 100 μCi of ^177Lu-labeled ^177Lu-E3 and ^177Lu-PSMA-617 were injected into mice carrying LNCaP PSMA-positive tumors (Jiangsu Huajing Molecular Imaging and Drug Research Institute Co., Ltd.) through the tail vein respectively. Mice were anesthetized with 2% isoflurane/98% oxygen for SPECT image contrast study.

[4] = 5 min after tail vein injection
[5] = 0.5 h after tail vein injection

## O=C([O-])CN1CCN(CC(=O)[O-])CCN(CC(=O)Nc2nc3cc(C(=O)NC(Cc4ccc5ccccc5c4)C(=O)NCCCCC(NC(=O)NC(CCC(=O)O)C(=O)O)C(=O)O)ccc3s2)CCN(CC(=O)[O-])CC1.[177Lu+3] (stereo not drawn) [^177Lu-E1]
[1]; 0.1 nM
  uptake by LNCap cells: 39 cpm
[1]; 1 nM
  uptake by LNCap cells: 169 cpm
[1]; 10 nM
  uptake by LNCap cells: 77 cpm
[1]; 100 nM
  uptake by LNCap cells: 121 cpm
[1]; 1000 nM
  uptake by LNCap cells: 331 cpm
[1]; 10000 nM
  uptake by LNCap cells: 1595 cpm
[2]; [4]
  plasma radioactive counts: 28305 cpm and 17143 cpm
  plasma radioactive counts, MEAN: 22724 cpm
[2]; [5]
  plasma radioactive counts: 9829 cpm and 8252 cpm
  plasma radioactive counts, MEAN: 9041 cpm
[2]; 1 h after tail vein injection
  plasma radioactive counts: 3505 cpm and 3389 cpm
  plasma radioactive counts, MEAN: 3447 cpm
[2]; 2 h after tail vein injection
  plasma radioactive counts: 615 cpm and 1288 cpm
  plasma radioactive counts, MEAN: 952 cpm
[2]; 4 h after tail vein injection
  plasma radioactive counts: 163 cpm and 315 cpm
  plasma radioactive counts, MEAN: 239 cpm
[2]; 8 h after tail vein injection
  plasma radioactive counts: 174 cpm and 179 cpm
  plasma radioactive counts, MEAN: 177 cpm
[2]; 24 h after tail vein injection
  plasma radioactive counts: 151 cpm and 169 cpm
  plasma radioactive counts, MEAN: 160 cpm

## O=C([O-])CN1CCN(CC(=O)[O-])CCN(CC(=O)N2CC3(CCC(C(=O)NC(Cc4ccc5ccccc5c4)C(=O)NCCCCC(NC(=O)NC(CCC(=O)O)C(=O)O)C(=O)O)CC3)C2)CCN(CC(=O)[O-])CC1.[177Lu+3] (stereo not drawn) [^177Lu-E2]
[1]; 0.1 nM
  uptake by LNCap cells: 29 cpm
[1]; 1 nM
  uptake by LNCap cells: 91 cpm
[1]; 10 nM
  uptake by LNCap cells: 344 cpm
[1]; 100 nM
  uptake by LNCap cells: 596 cpm
[1]; 1000 nM
  uptake by LNCap cells: 775 cpm
[1]; 10000 nM
  uptake by LNCap cells: 1328 cpm
[2]; [4]
  plasma radioactive counts: 37703 cpm and 41406 cpm
  plasma radioactive counts, MEAN: 39555 cpm
[2]; [5]
  plasma radioactive counts: 18427 cpm and 15030 cpm
  plasma radioactive counts, MEAN: 16729 cpm
[2]; 1 h after tail vein injection
  plasma radioactive counts: 7473 cpm and 5428 cpm
  plasma radioactive counts, MEAN: 6451 cpm
[2]; 2 h after tail vein injection
  plasma radioactive counts: 1863 cpm and 1189 cpm
  plasma radioactive counts, MEAN: 1526 cpm
[2]; 4 h after tail vein injection
  plasma radioactive counts: 296 cpm and 219 cpm
  plasma radioactive counts, MEAN: 258 cpm
[2]; 8 h after tail vein injection
  plasma radioactive counts: 178 cpm and 190 cpm
  plasma radioactive counts, MEAN: 184 cpm
[2]; 24 h after tail vein injection
  plasma radioactive counts: 167 cpm and 170 cpm
  plasma radioactive counts, MEAN: 169 cpm

## O=C([O-])CN1CCN(CC(=O)[O-])CCN(CC(=O)N2CCC3(CCC(C(=O)NC(Cc4ccc5ccccc5c4)C(=O)NCCCCC(NC(=O)NC(CCC(=O)O)C(=O)O)C(=O)O)CC3)CC2)CCN(CC(=O)[O-])CC1.[177Lu+3] (stereo not drawn) [^177Lu-E9]
[1]; 0.1 nM
  uptake by LNCap cells: 56 cpm
[1]; 1 nM
  uptake by LNCap cells: 55 cpm
[1]; 10 nM
  uptake by LNCap cells: 84 cpm
[1]; 100 nM
  uptake by LNCap cells: 140 cpm
[1]; 1000 nM
  uptake by LNCap cells: 405 cpm
[1]; 10000 nM
  uptake by LNCap cells: 1194 cpm
[2]; [4]
  plasma radioactive counts: 30764 cpm and 38134 cpm and 30001 cpm
  plasma radioactive counts, MEAN: 32966 cpm
[2]; [5]
  plasma radioactive counts: 10391 cpm and 12249 cpm and 8575 cpm
  plasma radioactive counts, MEAN: 10405 cpm
[2]; 1 h after tail vein injection
  plasma radioactive counts: 4483 cpm and 4139 cpm and 2519 cpm
  plasma radioactive counts, MEAN: 3714 cpm
[2]; 2 h after tail vein injection
  plasma radioactive counts: 892 cpm and 652 cpm and 346 cpm
  plasma radioactive counts, MEAN: 630 cpm
[2]; 4 h after tail vein injection
  plasma radioactive counts: 210 cpm and 196 cpm and 197 cpm
  plasma radioactive counts, MEAN: 201 cpm
[2]; 8 h after tail vein injection
  plasma radioactive counts: 171 cpm and 184 cpm and 161 cpm
  plasma radioactive counts, MEAN: 172 cpm
[2]; 24 h after tail vein injection
  plasma radioactive counts: 164 cpm and 162 cpm and 183 cpm
  plasma radioactive counts, MEAN: 170 cpm

## O=C([O-])CN1CCN(CC(=O)[O-])CCN(CC(=O)NC23CC(C(=O)NC(Cc4ccc5ccccc5c4)C(=O)NCCCCC(NC(=O)NC(CCC(=O)O)C(=O)O)C(=O)O)(C2)C3)CCN(CC(=O)[O-])CC1.[177Lu+3] (stereo not drawn) [^177Lu-E14]
[1]; 0.1 nM
  uptake by LNCap cells: 28 cpm
[1]; 1 nM
  uptake by LNCap cells: 82 cpm
[1]; 10 nM
  uptake by LNCap cells: 220 cpm
[1]; 100 nM
  uptake by LNCap cells: 345 cpm
[1]; 1000 nM
  uptake by LNCap cells: 479 cpm
[1]; 10000 nM
  uptake by LNCap cells: 362 cpm
[2]; [4]
  plasma radioactive counts: 42150 cpm and 41058 cpm and 45756 cpm
  plasma radioactive counts, MEAN: 42988 cpm
[2]; [5]
  plasma radioactive counts: 18047 cpm and 18268 cpm and 18614 cpm
  plasma radioactive counts, MEAN: 18310 cpm
[2]; 1 h after tail vein injection
  plasma radioactive counts: 7200 cpm and 6304 cpm and 6154 cpm
  plasma radioactive counts, MEAN: 6553 cpm
[2]; 2 h after tail vein injection
  plasma radioactive counts: 1415 cpm and 1686 cpm and 1863 cpm
  plasma radioactive counts, MEAN: 1655 cpm
[2]; 4 h after tail vein injection
  plasma radioactive counts: 203 cpm and 198 cpm and 259 cpm
  plasma radioactive counts, MEAN: 220 cpm
[2]; 8 h after tail vein injection
  plasma radioactive counts: 201 cpm and 206 cpm and 203 cpm
  plasma radioactive counts, MEAN: 203 cpm
[2]; 24 h after tail vein injection
  plasma radioactive counts: 196 cpm and 175 cpm and 159 cpm
  plasma radioactive counts, MEAN: 177 cpm

## O=C([O-])CN1CCN(CC(=O)[O-])CCN(CC(=O)NCC2CCC(C(=O)N[C@@H](Cc3ccc4ccccc4c3)C(=O)NCCCC[C@H](NC(=O)N[C@@H](CCC(=O)O)C(=O)O)C(=O)O)CC2)CCN(CC(=O)[O-])CC1.[177Lu+3] (stereo partly drawn) [^177Lu-PSMA-617, reference compound]
22rv1 xenograft tumor
  tumor growth inhibition rate: 15-21%
[1]; 0.1 nM
  uptake by LNCap cells: 49 cpm
[1]; 1 nM
  uptake by LNCap cells: 67 cpm
[1]; 10 nM
  uptake by LNCap cells: 225 cpm
[1]; 100 nM
  uptake by LNCap cells: 389 cpm
[1]; 1000 nM
  uptake by LNCap cells: 599 cpm
[1]; 10000 nM
  uptake by LNCap cells: 1625 cpm
[2]; [4]
  plasma radioactive counts: 24449 cpm and 23276 cpm and 22010 cpm
  plasma radioactive counts, MEAN: 23245 cpm
[2]; [5]
  plasma radioactive counts: 9783 cpm and 13738 cpm and 14589 cpm
  plasma radioactive counts, MEAN: 12703 cpm
[2]; 1 h after tail vein injection
  plasma radioactive counts: 3865 cpm and 6988 cpm and 7736 cpm
  plasma radioactive counts, MEAN: 6196 cpm
[2]; 2 h after tail vein injection
  plasma radioactive counts: 679 cpm and 1346 cpm and 1544 cpm
  plasma radioactive counts, MEAN: 1190 cpm
[2]; 4 h after tail vein injection
  plasma radioactive counts: 207 cpm and 219 cpm and 225 cpm
  plasma radioactive counts, MEAN: 217 cpm
[2]; 8 h after tail vein injection
  plasma radioactive counts: 188 cpm and 187 cpm and 170 cpm
  plasma radioactive counts, MEAN: 182 cpm
[2]; 24 h after tail vein injection
  plasma radioactive counts: 173 cpm and 176 cpm and 178 cpm
  plasma radioactive counts, MEAN: 176 cpm
[3]; 1 h
  Heart, Averaged: 1.59 % ID/cc
  Kidney, Averaged: 58.17 % ID/cc
  Liver, Averaged: 1.61 % ID/cc
  Lung, Averaged: 3.30 % ID/cc
  Tumor, Averaged: 19.42 % ID/cc
[3]; 4 h
  Heart, Averaged: 1.47 % ID/cc
  Kidney, Averaged: 8.37 % ID/cc
  Liver, Averaged: 1.27 % ID/cc
  Lung, Averaged: 1.54 % ID/cc
  Tumor, Averaged: 10.68 % ID/cc
[3]; 8 h
  Heart, Averaged: 0.53 % ID/cc
  Kidney, Averaged: 4.35 % ID/cc
  Liver, Averaged: 1.04 % ID/cc
  Lung, Averaged: 0.86 % ID/cc
  Tumor, Averaged: 9.4 % ID/cc
[3]; 1 d
  Heart, Averaged: 1.45 % ID/cc
  Kidney, Averaged: 1.16 % ID/cc
  Liver, Averaged: 1.43 % ID/cc
  Lung, Averaged: 0.85 % ID/cc
  Tumor, Averaged: 2.19 % ID/cc
[3]; 3 d
  Heart, Averaged: 0.46 % ID/cc
  Kidney, Averaged: 1.55 % ID/cc
  Liver, Averaged: 0.96 % ID/cc
  Lung, Averaged: 3.74 % ID/cc
  Tumor, Averaged: 4.76 % ID/cc

Source: patent US20240366813A1, “PEPTIDE-UREA DERIVATIVE, PHARMACEUTICAL COMPOSITION CONTAINING SAME AND APPLICATION THEREOF” (Bivision Pharmaceuticals, Inc., priority 0001, published 2024)
